Data: BindingDB's records for doi:10.1021/acsmedchemlett.7b00245 (University of Iowa, 2017)
pEC50: −log10 of the molar value.

Test: Activation of BTN3A1 in human PBMC-derived Vgamma9Vdelta2 T cells assessed as induction of interleukin 2 stimulated cell proliferation by measuring increase in CD3 positive cells incubated for 3 days followed by 11 days incubation post compound wash out with subsequent stimulation with IL-2 every 3 days measured after 14 days by flow cytometr
For COP(=O)(CC/C=C(\C)CO)Oc1cccc2ccccc12 (configuration not stated), the pEC50 was 5.26.
C/C(=C\CCP(=O)(COC(=O)C(C)(C)C)Oc1cccc2ccccc12)CO (configuration not stated) showed a pEC50 of 9.10.
For C/C(=C\CCP(=O)(COC(=O)C(C)(C)C)OCOC(=O)C(C)(C)C)CO (configuration not stated), the pEC50 was 8.27.
C/C(=C\CCP(=O)(O)Oc1cccc2ccccc12)CO showed a pEC50 of 6.21.
For C/C(=C\CCP(=O)(O)Oc1ccccc1)CO, the pEC50 was 6.06.
With COP(=O)(CC/C=C(\C)CO)Oc1ccccc1 (configuration not stated) the pEC50 was 4.48.
Compound C/C(=C\CCP(=O)(COC(=O)C(C)(C)C)Oc1ccccc1)CO (configuration not stated) has a pEC50 of 7.85.
